Where “and” joins values, the source holds several entries; their conditions need not be identical. Equal values may be shown once. Toxic doses and inconclusive results are not listed.
System: CD2F1 mice, L1210 leukemia ip, survival T/C
Assay: NCI In Vivo Anticancer Drug Screen. Data for tumor model L1210 Leukemia (intraperitoneal) in CD2F1 (CDF1) mice
Settings: higher = longer survival
Summary of the method: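 Transplantable tumor in mice; compound-treated vs vehicle-treated groups. Read-out = treated/control ratio of the measured endpoint.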

[1] = endpoint: mean survival time, dose: 25.0 mg/kg/injection, schedule: Q04DX002 (ip), vehicle: saline with Tween-80
[2] = endpoint: mean survival time, dose: 100.0 mg/kg/injection, schedule: Q04DX002 (ip), vehicle: saline with Tween-80
[3] = endpoint: mean survival time, dose: 100.0 mg/kg/injection, schedule: Q01DX009 (ip), vehicle: saline with Tween-80
[4] = endpoint: mean survival time, dose: 100.0 mg/kg/injection, schedule: Q04DX003 (ip), vehicle: saline with Tween-80
[5] = endpoint: mean survival time, dose: 200.0 mg/kg/injection, schedule: Q04DX003 (ip), vehicle: saline with Tween-80
[6] = endpoint: mean survival time, dose: 400.0 mg/kg/injection, schedule: Q04DX003 (ip), vehicle: saline with Tween-80
[7] = endpoint: mean survival time, dose: 100.0 mg/kg/injection, schedule: Q01DX009 (ip), vehicle: Klucel (hydroxypropylcellulose) (HPC)
[8] = endpoint: mean survival time, dose: 200.0 mg/kg/injection, schedule: Q01DX009 (ip), vehicle: Klucel (hydroxypropylcellulose) (HPC)
[9] = endpoint: mean survival time, dose: 400.0 mg/kg/injection, schedule: Q01DX009 (ip), vehicle: Klucel (hydroxypropylcellulose) (HPC)
[10] = endpoint: mean survival time, dose: 200.0 mg/kg/injection, schedule: Q01DX009 (ip), vehicle: saline with Tween-80
[11] = endpoint: mean survival time, dose: 400.0 mg/kg/injection, schedule: Q01DX009 (ip), vehicle: saline with Tween-80
[12] = endpoint: mean survival time, dose: 25.0 mg/kg/injection, schedule: Q01DX009 (ip), vehicle: Klucel (hydroxypropylcellulose) (HPC)
[13] = endpoint: mean survival time, dose: 50.0 mg/kg/injection, schedule: Q01DX009 (ip), vehicle: Klucel (hydroxypropylcellulose) (HPC)

`CN(C)C(=O)Nc1nc2ccccc2s1` was tested, and the T/C [1] was 103 % of control, the T/C (endpoint: mean survival time, dose: 50.0 mg/kg/injection, schedule: Q04DX002 (ip), vehicle: saline with Tween-80) was 95 % of control and the T/C [2] was 115 % of control and 93 % of control. For the same compound, the T/C (endpoint: mean survival time, dose: 400.0 mg/kg/injection, schedule: Q04DX002 (ip), vehicle: saline with Tween-80) was 90 % of control.

With `O=C(O)Cc1ccccc1C(=O)O.[Pb]` the T/C (endpoint: mean survival time, dose: 50.0 mg/kg/injection, schedule: Q01DX009 (ip), vehicle: saline with Tween-80) was 102 % of control, the T/C [3] was 102 % of control and the T/C [4] was 93 % of control. The T/C [5] was 98 % of control.

`CC1=C(C)C2(C)C1(C)C1(C)C(C)=C(C)C21C` (stereo unspecified) was tested, and the T/C [4] was 96 % of control, the T/C [5] was 93 % of control and the T/C [6] was 89 % of control.

With `CC1CN(C2(c3ccccc3)CCCCC2)CCC12OCCO2` (stereo unspecified) the T/C [2] was 93 % of control and the T/C (endpoint: mean survival time, dose: 200.0 mg/kg/injection, schedule: Q04DX002 (ip), vehicle: saline with Tween-80) was 97 % of control.

With `Nc1nc2c(ncn2-c2cccc(C(F)(F)F)c2)c(=O)[nH]1` the T/C [4] was 94 % of control, the T/C [5] was 89 % of control and the T/C [6] was 92 % of control.

`C=C1CC(C)(Cn2cnc3c(=O)[nH]cnc32)OC1=O` (stereo unspecified) was tested, and the T/C (endpoint: median survival time, dose: 3.13 mg/kg/injection, schedule: Q01DX005 (ip), vehicle: water) was 94 % of control, the T/C (endpoint: median survival time, dose: 6.25 mg/kg/injection, schedule: Q01DX005 (ip), vehicle: water) was 94 % of control and the T/C (endpoint: median survival time, dose: 12.5 mg/kg/injection, schedule: Q01DX005 (ip), vehicle: water) was 98 % of control. The T/C (endpoint: median survival time, dose: 25.0 mg/kg/injection, schedule: Q01DX005 (ip), vehicle: water) was 92 % of control.

In the case of `C[C@H](N)C(=O)N[C@@H]1[C@H]2C(=C(O)C[C@@H](O)[C@@H]2O)C(=O)O[C@@H]1C`, the T/C (endpoint: mean survival time, dose: 100.0 mg/kg/injection, schedule: Q01DX007 (ip), vehicle: saline) is reported as 113 % of control, the T/C (endpoint: mean survival time, dose: 100.0 mg/kg/injection, schedule: Q01DX009 (ip), vehicle: saline) is reported as 118 % of control and the T/C (endpoint: mean survival time, dose: 100.0 mg/kg/injection, schedule: Q03DX003 (ip), vehicle: saline) is reported as 107 % of control. The T/C (endpoint: mean survival time, dose: 100.0 mg/kg/injection, schedule: Q04DX003 (ip), vehicle: saline) was 106 % of control, the T/C (endpoint: mean survival time, dose: 200.0 mg/kg/injection, schedule: Q01DX007 (ip), vehicle: saline) was 124 % of control and the T/C (endpoint: mean survival time, dose: 200.0 mg/kg/injection, schedule: Q01DX009 (ip), vehicle: saline) was 120 % of control. The T/C (endpoint: mean survival time, dose: 200.0 mg/kg/injection, schedule: Q03DX003 (ip), vehicle: saline) was 109 % of control, the T/C (endpoint: mean survival time, dose: 200.0 mg/kg/injection, schedule: Q04DX003 (ip), vehicle: saline) was 106 % of control and the T/C (endpoint: mean survival time, dose: 400.0 mg/kg/injection, schedule: Q03DX003 (ip), vehicle: saline) was 115 % of control. For the same compound, the T/C (endpoint: mean survival time, dose: 400.0 mg/kg/injection, schedule: Q04DX003 (ip), vehicle: saline) was 112 % of control, the T/C (endpoint: median survival time, dose: 75.0 mg/kg/injection, schedule: Q01DX009 (ip), vehicle: saline) was 103 % of control and the T/C (endpoint: median survival time, dose: 150.0 mg/kg/injection, schedule: Q01DX009 (ip), vehicle: saline) was 109 % of control. For the same compound, the T/C (endpoint: median survival time, dose: 300.0 mg/kg/injection, schedule: Q01DX009 (ip), vehicle: saline) was 119 % of control, the T/C (endpoint: median survival time, dose: 1200.0 mg/kg/injection, schedule: Q01DX009 (ip), vehicle: saline) was 150 % of control and 166 % of control and the T/C (endpoint: median survival time, dose: 2400.0 mg/kg/injection, schedule: Q01DX009 (ip), vehicle: saline) was 86 % of control.

With `NC(=O)c1csc(NC2OC(CO)C(O)C(O)C2O)n1` (stereo unspecified) the T/C (endpoint: mean survival time, dose: 12.5 mg/kg/injection, schedule: Q01DX005 (ip), vehicle: water) was 98 % of control, the T/C (endpoint: mean survival time, dose: 25.0 mg/kg/injection, schedule: Q01DX005 (ip), vehicle: water) was 96 % of control and the T/C (endpoint: mean survival time, dose: 50.0 mg/kg/injection, schedule: Q01DX005 (ip), vehicle: water) was 101 % of control. The T/C (endpoint: mean survival time, dose: 100.0 mg/kg/injection, schedule: Q01DX005 (ip), vehicle: water) was 96 % of control and the T/C (endpoint: mean survival time, dose: 200.0 mg/kg/injection, schedule: Q01DX005 (ip), vehicle: water) was 98 % of control.

With `COC1CC2C3CCC4(OC5CC(C)CN(C(C)=O)C5C4C)C(C)=C3C(=O)C2C2(C)CCC3CC312` (stereo unspecified) the T/C [4] was 106 % of control, the T/C [5] was 101 % of control and the T/C [6] was 104 % of control.

For `O=C(COc1ccccc1)N(/N=C/c1ccccc1)C(=O)c1ccccc1`, the T/C [7] was 96 % of control, the T/C (endpoint: mean survival time, dose: 100.0 mg/kg/injection, schedule: Q04DX003 (ip), vehicle: Klucel (hydroxypropylcellulose) (HPC)) was 94 % of control and the T/C [8] was 96 % of control. The T/C (endpoint: mean survival time, dose: 200.0 mg/kg/injection, schedule: Q04DX003 (ip), vehicle: Klucel (hydroxypropylcellulose) (HPC)) was 92 % of control, the T/C [9] was 89 % of control and the T/C (endpoint: mean survival time, dose: 400.0 mg/kg/injection, schedule: Q04DX003 (ip), vehicle: Klucel (hydroxypropylcellulose) (HPC)) was 94 % of control.

`CC(C)(C)OC(=O)NC(CC(N)=O)C(=O)O` (stereo unspecified) was tested, and the T/C (endpoint: mean survival time, dose: 100.0 mg/kg/injection, schedule: Q01DX001 (ip), vehicle: saline sonified) was 98 % of control, the T/C (endpoint: mean survival time, dose: 200.0 mg/kg/injection, schedule: Q01DX001 (ip), vehicle: saline sonified) was 93 % of control and the T/C (endpoint: mean survival time, dose: 400.0 mg/kg/injection, schedule: Q01DX001 (ip), vehicle: saline sonified) was 98 % of control.

In the case of `CN(C)CCCN=C(N)CSP(=O)(O)O`, the T/C (endpoint: mean survival time, dose: 100.0 mg/kg/injection, schedule: Q04DX002 (ip), vehicle: saline) is reported as 102 % of control and the T/C (endpoint: mean survival time, dose: 200.0 mg/kg/injection, schedule: Q04DX002 (ip), vehicle: saline) is reported as 109 % of control.

For `CNC(=S)C#N`, the T/C (endpoint: median survival time, dose: 6.25 mg/kg/injection, schedule: Q01DX005 (ip), vehicle: saline + Tween-80 + alcohol) was 100 % of control, the T/C (endpoint: median survival time, dose: 12.5 mg/kg/injection, schedule: Q01DX005 (ip), vehicle: saline + Tween-80 + alcohol) was 97 % of control and the T/C (endpoint: median survival time, dose: 25.0 mg/kg/injection, schedule: Q01DX005 (ip), vehicle: saline + Tween-80 + alcohol) was 98 % of control and 102 % of control. The T/C (endpoint: median survival time, dose: 50.0 mg/kg/injection, schedule: Q01DX005 (ip), vehicle: saline + Tween-80 + alcohol) was 87 % of control and 112 % of control.

With `O=CC(O)C(O)C(OC1OC(CO)C(OC2OC(CO)C(O)C(O)C2O)C(O)C1O)C(O)CO` (stereo unspecified) the T/C [3] was 98 % of control, the T/C [10] was 95 % of control and the T/C [11] was 95 % of control.

With `O=P(Oc1ccccc1)(c1ccccc1)c1ccccc1` the T/C [4] was 109 % of control, the T/C [5] was 95 % of control and the T/C [6] was 109 % of control.

`NS(=O)(=O)c1cc2c(cc1Cl)NCNS2(=O)=O` was tested, and the T/C [3] was 98 % of control, the T/C [10] was 98 % of control and the T/C [11] was 96 % of control.

`CSCSCC(N)CO` (stereo unspecified) was tested, and the T/C [12] was 102 % of control, the T/C [13] was 94 % of control and the T/C [7] was 93 % of control. For the same compound, the T/C [8] was 96 % of control and the T/C [9] was 96 % of control.

`CN1CCN(c2ccccc2)CC1` was tested, and the T/C (endpoint: mean survival time, dose: 100.0 mg/kg/injection, schedule: Q01DX001 (ip), vehicle: saline) was 112 % of control.

`Oc1ccc(/C=N/NC(=S)NN2CCOCC2)nc1` was tested, and the T/C (endpoint: mean survival time, dose: 3.12 mg/kg/injection, schedule: Q01DX009 (ip), vehicle: Klucel (hydroxypropylcellulose) (HPC)) was 103 % of control, the T/C (endpoint: mean survival time, dose: 6.25 mg/kg/injection, schedule: Q01DX009 (ip), vehicle: Klucel (hydroxypropylcellulose) (HPC)) was 104 % of control and the T/C (endpoint: mean survival time, dose: 12.5 mg/kg/injection, schedule: Q01DX009 (ip), vehicle: Klucel (hydroxypropylcellulose) (HPC)) was 101 % of control. The T/C [12] was 121 % of control, the T/C [1] was 101 % of control and the T/C [13] was 95 % of control. The T/C [2] was 91 % of control and 94 % of control.

`Nc1nc2c(nc(NCc3ccccc3)n2C2OC(CO)C(O)C2O)c(=O)[nH]1` (stereo unspecified) was tested, and the T/C (endpoint: mean survival time, dose: 6.25 mg/kg/injection, schedule: Q01DX005 (ip), vehicle: distilled water + Tween-80) was 97 % of control, the T/C (endpoint: mean survival time, dose: 12.5 mg/kg/injection, schedule: Q01DX005 (ip), vehicle: distilled water + Tween-80) was 95 % of control and the T/C (endpoint: mean survival time, dose: 25.0 mg/kg/injection, schedule: Q01DX005 (ip), vehicle: distilled water + Tween-80) was 95 % of control. The T/C (endpoint: mean survival time, dose: 50.0 mg/kg/injection, schedule: Q01DX005 (ip), vehicle: distilled water + Tween-80) was 90 % of control and the T/C (endpoint: mean survival time, dose: 100.0 mg/kg/injection, schedule: Q01DX005 (ip), vehicle: distilled water + Tween-80) was 90 % of control.

`CC(=O)CC(C)(C)S(=O)(=O)Cc1ccccc1` was tested, and the T/C (endpoint: mean survival time, dose: 100.0 mg/kg/injection, schedule: Q01DX001 (ip), vehicle: Klucel (hydroxypropylcellulose) (HPC)) was 93 % of control, the T/C (endpoint: mean survival time, dose: 200.0 mg/kg/injection, schedule: Q01DX001 (ip), vehicle: Klucel (hydroxypropylcellulose) (HPC)) was 96 % of control and the T/C (endpoint: mean survival time, dose: 400.0 mg/kg/injection, schedule: Q01DX001 (ip), vehicle: Klucel (hydroxypropylcellulose) (HPC)) was 96 % of control.

For `CC1(O)CSC(C)(O)CS1` (stereo unspecified), the T/C (endpoint: mean survival time, dose: 6.25 mg/kg/injection, schedule: Q04DX002 (ip), vehicle: saline with Tween-80) was 104 % of control, the T/C (endpoint: mean survival time, dose: 12.5 mg/kg/injection, schedule: Q04DX002 (ip), vehicle: saline with Tween-80) was 100 % of control and the T/C [1] was 104 % of control.

Source: PubChem BioAssay AID256 (DTP/NCI, 2004)
